Laboratory results: patent US11958868B2, “Methods of using metal complexes to promote wound healing” (University of Macau, priority 2022, dated 2024)
Read-outs that look alike come from different tables or passages of the source.

Experiments:
[1] = system: HIF-1α activation of the HRE-driven reporter; assay: Dual luciferase reporter assay (HRE-driven luciferase activity); format: cell-based, Human; conditions: HEK293 cells, 8 h
Protocol: A library of cyclometalated Ir(III)/Rh(III) metal complexes 1-14 (as racemates) with diverse structures were selected for initial screening, in order to identify favorable substructures for the design of the next round of complexes (FIG. 1a). In cells, HIF-1α moves into the nucleus and binds to the hypoxia-response element (HRE) in the promoters of transactivated genes. In this study, the dual luciferase reporter assay (DLR) was performed to monitor the variations of HRE-driven luciferase activity induced by the complexes (FIG. 1f). Human embryonic kidney HEK293 cells were treated with complexes (10 μM) for 8 h, and the HRE-driven luciferase activity of the cell lysates was determined. Complexes that inhibit the interaction between VHL and HIF-1α would be expected to increase the level of HRE-driven luciferase activity in the cell lysates.
HEK293 cells were seeded in six well plates 24 h before transfection. HRE-luciferase plasmid (4 μg) and pRL-TK plasmid (4 μg) and TurboFect reagent (6 μL) were mixed together in serum-free DMEM medium and the resulting solution was incubated for 20 min at room temperature. The mixture was the added dropwise to the HEK293 cells in the wells. The cells were incubated for 32 h at 37° C. in a CO2 incubator before use.
The inhibition of HIF-1α activity was assayed by a reporter assay using a dual luciferase reporter assay system (Promega, Madison, WI, USA). Transiently transfected cells were treated with complexes or P1 for 8 h before measurement. Luciferase activity was integrated over a 10 second period and measured using a spectrophotometer (Spectra-max M5, Molecular Devices, USA). The results were standardization with the activity of Renilla luciferase. All data are expressed as means±SD.

VHL-HIF-1α interaction = biological target: T1, VHL-HIF-1α interaction (Homo sapiens, UniProt P40337); assay: Co-immunoprecipitation of hydroxy-HIF-1α with VHL in HEK293 cells; format: cell-based; conditions: HEK293 cells, 0.3, 1, 3, 6 and 9 μM for 2 h
T1 construct: endogenous in cells; host or cells: HEK293
Protocol: HEK293 cells were treated with vehicle DMSO (1% for 2 h), 1a (0.3, 1, 3, 6 and 9 μM for 2 h), VH298 (100 μM for 2 h), MG132 (20 μM for 3 h), or FG-4592 (100 μM for 2 h) before lysis. Cell lysates were collected and incubated with VHL antibody overnight at 4° C. The proteins were immunoprecipitated using agarose beads. The levels of hydroxy-HIF-1α co-precipitated with VHL were detected using a hydroxy-HIF-1α antibody, and then visualized using ECL Western Blotting Detection Reagent (GE Healthcare). (B) Cellular thermal shift assays to monitor cellular target engagement of VHL and HIF-1α. HEK293 cell lysates were treated with 1a (3 μM) at room temperature for 30 min and then heated at different temperature ranging from 48° C. to 68° C. for 5 min. The protein samples were collected and detected by Western blotting using either VHL or PHD2 antibodies. (C) Fluorescence-based protein thermal shift assay of VBC in the presence or absence of VH298 (100 μM) and complex 1a (100 μM). (D) ITC titration of complex 1a (300 μM) into recombinant VHL protein (30 μM). ITC experiments were carried in a MicroCal PEAQ-ITC Isothermal Titration Calorimeter (Malvern Panalytical). […] Data are expressed as means±SD (n=3 independent experiments for figures a and b, samples for figures c and e), P values were calculated using a two-sided t-test. *P<0.05, **P<0.01 vs. DMSO group. […]

PHD2 = biological target: T2, PHD2 (Homo sapiens, UniProt Q9GZT9); assay: Cellular thermal shift assay (CETSA) in HEK293 cell lysates, PHD2; format: binding; conditions: 3 μM
T2 construct: detected by Western blotting using either VHL or PHD2 antibodies; endogenous in cells; host or cells: HEK293 cell lysate
Protocol: (§1) HEK293 cells were treated with vehicle DMSO (1% for 2 h), 1a (0.3, 1, 3, 6 and 9 μM for 2 h), VH298 (100 μM for 2 h), MG132 (20 μM for 3 h), or FG-4592 (100 μM for 2 h) before lysis. Cell lysates were collected and incubated with VHL antibody overnight at 4° C. The proteins were immunoprecipitated using agarose beads. The levels of hydroxy-HIF-1α co-precipitated with VHL were detected using a hydroxy-HIF-1α antibody, and then visualized using ECL Western Blotting Detection Reagent (GE Healthcare). (B) Cellular thermal shift assays to monitor cellular target engagement of VHL and HIF-1α. HEK293 cell lysates were treated with 1a (3 μM) at room temperature for 30 min and then heated at different temperature ranging from 48° C. to 68° C. for 5 min. The protein samples were collected and detected by Western blotting using either VHL or PHD2 antibodies. (C) Fluorescence-based protein thermal shift assay of VBC in the presence or absence of VH298 (100 μM) and complex 1a (100 μM). […] Data are expressed as means±SD (n=3 independent experiments for figures a and b, samples for figures c and e), P values were calculated using a two-sided t-test. *P<0.05, **P<0.01 vs. DMSO group.
(§2) After incubating HEK293 cell lysates with complex 1a followed by heating to set temperatures, VHL and PHD2 levels in the soluble fraction were quantitated by Western blotting. […]

[2] = biological target: T3, human recombinant VHL:ElonginB:ElonginC (VBC) complex (Homo sapiens, UniProt P40337); assay: Competitive fluorescence polarization binding assay
T3 construct: made in house

[3] = biological target: T4, His-tagged recombinant VBC protein complex (Homo sapiens, UniProt P40337); assay: Biolayer interferometry (BLI); format: binding; conditions: for Kd: 1:1 interaction, 0.78-12.5 μM
T4 construct: made in house
Protocol: HEK293 cells were treated with vehicle DMSO (1% for 2 h), 1a (0.3, 1, 3, 6 and 9 μM for 2 h), VH298 (100 μM for 2 h), MG132 (20 μM for 3 h), or FG-4592 (100 μM for 2 h) before lysis. Cell lysates were collected and incubated with VHL antibody overnight at 4° C. The proteins were immunoprecipitated using agarose beads. The levels of hydroxy-HIF-1α co-precipitated with VHL were detected using a hydroxy-HIF-1α antibody, and then visualized using ECL Western Blotting Detection Reagent (GE Healthcare). (B) Cellular thermal shift assays to monitor cellular target engagement of VHL and HIF-1α. HEK293 cell lysates were treated with 1a (3 μM) at room temperature for 30 min and then heated at different temperature ranging from 48° C. to 68° C. for 5 min. The protein samples were collected and detected by Western blotting using either VHL or PHD2 antibodies. (C) Fluorescence-based protein thermal shift assay of VBC in the presence or absence of VH298 (100 μM) and complex 1a (100 μM). (D) ITC titration of complex 1a (300 μM) into recombinant VHL protein (30 μM). ITC experiments were carried in a MicroCal PEAQ-ITC Isothermal Titration Calorimeter (Malvern Panalytical). […] (F) Biolayer interferometry (BLI) kinetic analysis of the interaction between complex 1a and VBC. VBC was surface-immobilized to Ni-NTA biosensors. […] Data are expressed as means±SD (n=3 independent experiments for figures a and b, samples for figures c and e), P values were calculated using a two-sided t-test. *P<0.05, **P<0.01 vs. DMSO group.
After incubating HEK293 cell lysates with complex 1a followed by heating to set temperatures, VHL and PHD2 levels in the soluble fraction were quantitated by Western blotting.

[4] = Body weight, blood glucose and toxicity in treated mice; format: in vivo
Description: The mice were maintained for 3 days. […] All experiments complied with all relevant ethical regulations.

VHL = VHL (Homo sapiens, UniProt P40337); assay: Cellular thermal shift assay (CETSA) in HEK293 cell lysates, VHL; format: binding; parameters: monitor the target engagement of 1a in HEK293 cell lysates; endogenous in cells; host or cells: HEK293 cell lysate; conditions: 3 μM, 30 min
Protocol: as §1, §2

COc1cc[n+]2c3c1ccc1c(OC)cc[n+](c13)[Ir-3]213([c]2ccccc2-c2cccc[n+]21)[c]1ccccc1-c1cccc[n+]13.F[P-](F)(F)(F)(F)F [1a]
HRE-driven luciferase activity compared to positive control P1 (and parent complex 1) [1]: about twice as potent as both the parent complex 1 as well as the positive control compound P1
HRE-driven luciferase activity, second round of screening ([1]; complexes 1a-1n, ranking and comparison in words): highest activation of HRE-drive luciferase activity
Dose-response of HRE-driven luciferase activity ([1]; indicated concentrations): dose-dependent activation of HRE-driven luciferase activity
Amount of HIF-1α-OH co-precipitating with VHL (VHL-HIF-1α interaction): reduced the amount of HIF-1α-OH co-precipitating with VHL in a dose-dependent manner
Thermal stabilization of PHD2 (CETSA) (PHD2): no appreciable effect on the thermal stabilization of PHD2
IC50 ([2]; 125 nM fluorescent peptide and 450 nM VBC, four-parameter logistic equation): 3.79 µM
Kd ([2]; displacement of FAM-DEALAHyp-YIPD from VBC): 2.06 µM
koff (BLI) [3]: 0.0352 s⁻¹
kon (BLI) [3]: 522 M⁻¹ s⁻¹
Kd ([3]; read-out: Kd (BLI, kinetic fit)): 6.74 ± 0.19 µM
Kd ([3]; read-out: Kd (BLI, steady state fit)): 5.8 ± 0.64 µM
Blood glucose levels or body weight ([4]; HFD/STZ and STZ models, diabetic and NC mice, 1.25 mg/kg i.p.): neither diabetic nor normal control mice (NC) showed obvious changes in blood glucose levels or body weight
Body weight after local application ([4]; WT and db/db mice, 0.25 mg/mL topical, 8 days): did not affect body weight
Toxicity in animal models of diabetes ([4]; db/db, HFD/STZ and STZ): without significant toxicity
Shift in the VHL melting curve (CETSA) (VHL): about 6 °C
